Experimental data: PMC7737538 (ACS Medicinal Chemistry Letters, 2020)

How the values were obtained:
[1] = system: VZV TK+ strain (strain Oka); type: cell-based, varicella zoster virus; settings: HEL fibroblasts; strain not given
HCMV AD-169 strain = assay: HCMV antiviral assay in HEL fibroblasts, AD-169 strain; type: cell-based, human cytomegalovirus; settings: strain not given
[2] = system: SARS-CoV-2 (two clinical isolates); assay: SARS-CoV-2 antiviral assay in Vero cells, statements without strain; type: cell-based
Vero cells = settings: readout not given
human rhinovirus (HRV) = settings: read-out: EC50 against human rhinovirus (HRV); in vitro; cited from earlier work
in vitro = settings: human

O=c1ccn([C@@H]2O[C@](F)(CO)[C@@H](O)C2(F)F)c(=O)[nH]1 [12b]
activity against VZV (in words) [1]: completely devoid of activity
activity against HCMV (in words) (HCMV AD-169 strain): completely devoid of activity

CO[C@]1(CO)O[C@@H](n2ccc(N)nc2=O)C(F)(F)[C@@H]1O [1a]
activity against VZV (in words) [1]: completely devoid of activity
activity against HCMV (in words) (HCMV AD-169 strain): completely devoid of activity
antiviral activity against SARS-CoV-2 (in words) [2]: devoid of antiviral activity
cytotoxicity in Vero cells (in words) (Vero cells): devoid of antiviral activity and cytotoxicity

Nc1ccn([C@@H]2O[C@](F)(CO)[C@@H](O)C2(F)F)c(=O)n1 [1b]
antiviral activity against SARS-CoV-2 (in words) [2]: no selective antiviral activity

CO[C@]1(CO)O[C@@H](n2ccc(=O)[nH]c2=O)C(F)(F)[C@@H]1O [12a]
activity against VZV (in words) [1]: completely devoid of activity
activity against HCMV (in words) (HCMV AD-169 strain): completely devoid of activity

Nc1ccn([C@@H]2O[C@H](CO)[C@@H](O)C2(F)F)c(=O)n1 [gemcitabine, 2′-deoxy-2′,2′-difluorocytidine, reference compound]
cytotoxicity in Vero cells (in words) (Vero cells): high cytotoxicity
EC50 (human rhinovirus (HRV)): 0.81 to 1.92 µM

CO[C@]1(COP(=O)(N[C@@H](C)C(=O)OCc2ccccc2)Oc2ccccc2)O[C@@H](n2ccc(N)nc2=O)C(F)(F)[C@@H]1O (some centres unmarked) [2a]
antiviral activity against SARS-CoV-2 (in words) [2]: devoid of antiviral activity
cytotoxicity in Vero cells (in words) (Vero cells): devoid of antiviral activity and cytotoxicity

C[C@H](NP(=O)(OC[C@@]1(F)O[C@@H](n2ccc(N)nc2=O)C(F)(F)[C@@H]1O)Oc1ccccc1)C(=O)OCc1ccccc1 (some centres unmarked) [2b]
antiviral activity against SARS-CoV-2 (in words) [2]: minimal antiviral activity

Nc1nc(O)c2ncn(COC(CO)CO)c2n1 [ganciclovir]
CC50 (in vitro): 231 ± 49.2 µM

Nc1ccn(C[C@@H](CO)OCP(=O)(O)O)c(=O)n1 [cidofovir]
CC50 (in vitro): 150 ± 29.1 µM

C[C@H](NP(=O)(OC[C@H]1O[C@@H](n2ccc(N)nc2=O)C(F)(F)[C@@H]1O)Oc1ccccc1)C(=O)OCc1ccccc1 (stereo partly drawn) [2c, Benzyl ((((2R,3R,5R)-5-(4-Amino-2-oxopyrimidin-1(2H)-yl)-4,4-difluoro-3-hydroxytetrahydrofuran-2-yl)methoxy)(phenoxy)phosphoryl)-L-alaninate]
antiviral activity against SARS-CoV-2 (in words) [2]: lack of activity
